Usually pIC50 stands for −log10 of the IC50, conventionally taken in molar units. One may read the inhibition as how much of the control response was suppressed.

The text below walks through data of ChEMBL document CHEMBL5143553, “Structure-activity relationship and mechanistic study on guggulsterone derivatives; Discovery of new anti-pancreatic cancer candidate” (Bioorg Med Chem, 2022).

Structures are written as SMILES. pIC50: −log10 of the molar value. Activity calls are given as the source filed them. The rule behind the calls is not given here.

Assay [1] has as its system PANC-1. In words: Preferential cytotoxic activity against human PANC-1 cells in nutrient-deprived medium. It counts as functional.
The test system of assay [2] is PANC-1. In words: Preferential cytotoxic activity against human PANC-1 cells in Dulbecco's modified Eagle's medium. The class given is functional, cell-based.
The nature of assay [3]: Selectivity index, ratio of PC50 for Preferential cytotoxic activity against human PANC-1 cells in Dulbecco's modified Eagle's medium to PC50 for Preferential cytotoxic activity against human PANC-1 cells in nutrient-deprived medium. The class given is functional.
The test system of assay [4] is PANC-1. In words: Inhibition of colony formation in human PANC-1 cells in DMEM medium at 5 uM incubated for 10 days relative to control. It counts as functional. The note with it: PANC-1, 240 h, time 10 day.
The test system of assay [5] is PANC-1. In words: Induction of morphological changes in human PANC-1 cells in nutrient-deprived medium assessed as induction of cell rounding and shrinkage at 10 uM within 24 hrs by Cyto-smart Lux2 live cell imaging based method. It counts as functional.
In assay [6] the target is T1, Serine/threonine-protein kinase AKT (Homo sapiens) (UniProt P31751+Q9Y243+P31749). In words: Inhibition of Akt signaling in human PANC-1 cells assessed as reduction in mTOR […] phosphorylation in NDM medium at 10 uM incubated for 6 hrs by Western blot analysis. The class given is cell-based.
T1 sequence (P31749 whole entry, looked up): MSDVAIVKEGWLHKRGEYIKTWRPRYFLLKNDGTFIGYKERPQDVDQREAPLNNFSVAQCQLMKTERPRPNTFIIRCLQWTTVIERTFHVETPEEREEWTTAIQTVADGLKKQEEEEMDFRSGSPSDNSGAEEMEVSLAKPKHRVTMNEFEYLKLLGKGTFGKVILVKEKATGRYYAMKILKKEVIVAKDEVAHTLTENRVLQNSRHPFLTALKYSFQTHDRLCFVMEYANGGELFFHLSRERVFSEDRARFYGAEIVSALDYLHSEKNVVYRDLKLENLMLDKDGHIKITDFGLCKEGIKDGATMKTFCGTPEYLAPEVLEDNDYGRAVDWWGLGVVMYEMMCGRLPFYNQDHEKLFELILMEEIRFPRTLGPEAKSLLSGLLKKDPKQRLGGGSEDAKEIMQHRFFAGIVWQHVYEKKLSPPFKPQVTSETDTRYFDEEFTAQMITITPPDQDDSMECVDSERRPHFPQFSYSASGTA
T1 sequence (P31751 whole entry, looked up): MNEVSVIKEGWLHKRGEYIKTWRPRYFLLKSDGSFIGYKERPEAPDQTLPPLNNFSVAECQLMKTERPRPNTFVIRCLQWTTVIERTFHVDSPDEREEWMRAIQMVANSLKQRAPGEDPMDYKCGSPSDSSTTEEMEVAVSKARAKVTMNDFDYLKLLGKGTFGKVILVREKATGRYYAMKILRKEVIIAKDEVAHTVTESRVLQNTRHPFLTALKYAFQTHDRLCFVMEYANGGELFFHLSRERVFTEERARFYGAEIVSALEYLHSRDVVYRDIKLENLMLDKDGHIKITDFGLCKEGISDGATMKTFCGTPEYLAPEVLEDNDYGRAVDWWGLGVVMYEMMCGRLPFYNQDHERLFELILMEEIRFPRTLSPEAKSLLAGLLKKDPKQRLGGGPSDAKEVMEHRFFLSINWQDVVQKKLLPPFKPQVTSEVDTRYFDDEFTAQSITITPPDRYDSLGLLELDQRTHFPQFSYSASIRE
T1 sequence (Q9Y243 whole entry, looked up): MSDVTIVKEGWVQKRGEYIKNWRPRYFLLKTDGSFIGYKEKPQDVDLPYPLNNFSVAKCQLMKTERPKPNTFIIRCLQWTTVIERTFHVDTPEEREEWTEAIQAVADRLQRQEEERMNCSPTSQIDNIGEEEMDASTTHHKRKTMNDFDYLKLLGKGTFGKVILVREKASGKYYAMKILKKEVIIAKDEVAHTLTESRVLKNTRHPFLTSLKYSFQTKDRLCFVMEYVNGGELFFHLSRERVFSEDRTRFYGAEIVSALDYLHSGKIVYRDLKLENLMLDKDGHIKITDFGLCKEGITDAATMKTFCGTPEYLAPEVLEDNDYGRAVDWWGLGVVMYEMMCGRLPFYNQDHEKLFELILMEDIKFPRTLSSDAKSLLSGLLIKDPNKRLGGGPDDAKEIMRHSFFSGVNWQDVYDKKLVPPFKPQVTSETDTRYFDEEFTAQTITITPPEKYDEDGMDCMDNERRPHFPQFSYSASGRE
Assay [7] relates to PANC-1. In words: Induction of morphological changes in human PANC-1 cells in nutrient-deprived medium assessed as induction of leakage of intracellular components into the media at 10 uM within 24 hrs by Cyto-smart Lux2 live cell imaging based method. The class given is functional.
The test system of assay [8] is PANC-1. Briefly: Effect on mTOR protein expression in human PANC-1 cells in NDM medium at 1 to 10 uM incubated for 6 hrs by Western blot analysis. It counts as functional, cell-based. The note with it: dose 1-10 µM. For orientation: Immunoblotting shows a protein as a band on a membrane.
Assay [9] has as its system PANC-1. Briefly: Inhibition of cell migration in human PANC-1 cells in DMEM medium assessed as wound area level at 3 uM after 48 hrs by wound-healing assay relative to initial area (reference value: 23%). The class given is functional. Also noted: scale not given: the % may be the effect or the level left.
In assay [10] the target is T1, Serine/threonine-protein kinase AKT (Homo sapiens). In words: Inhibition of Akt S473 phosphorylation in human PANC-1 cells in DMEM medium at 10 uM incubated for 6 hrs by Western blot analysis. It counts as cell-based.
The test system of assay [11] is PANC-1. Briefly: Inhibition of cell migration in human PANC-1 cells in DMEM medium assessed as wound area level at 5 uM after 24 hrs by wound-healing assay relative to initial area (reference value: 55%). The class given is functional. Also noted: scale not given: the % may be the effect or the level left.
Assay [12] relates to PANC-1. In words: Effect on Akt protein expression in human PANC-1 cells in DMEM medium at 1 to 10 uM incubated for 6 hrs by Western blot analysis. It counts as functional, cell-based. The conditions noted are these: dose 1-10 µM.
Assay [13] relates to PANC-1. In words: Inhibition of cell migration in human PANC-1 cells in DMEM medium assessed as wound area level at 3 uM after 24 hrs by wound-healing assay relative to initial area (reference value: 55%). It counts as functional. Also noted: scale not given: the % may be the effect or the level left.
Assay [14] concerns PANC-1. Briefly: Effect on mTOR protein expression in human PANC-1 cells in DMEM medium at 1 to 10 uM incubated for 6 hrs by Western blot analysis. The class given is functional, cell-based. The note with it: dose 1-10 µM.
For assay [15], the system named is PANC-1. Briefly: Inhibition of cell migration in human PANC-1 cells in DMEM medium assessed as wound area level at 5 uM after 48 hrs by wound-healing assay relative to initial area (reference value: 23%). The class given is functional. The arrangement: scale not given: the % may be the effect or the level left.
In assay [16] the test system is PANC-1. Briefly: Inhibition of colony formation in human PANC-1 cells in DMEM medium at 1 uM incubated for 10 days relative to control. The note with it: PANC-1, 240 h, time 10 day. It counts as functional.
In assay [17] the test system is PANC-1. Briefly: Inhibition of colony formation in human PANC-1 cells in DMEM medium at 3 uM incubated for 10 days relative to control. The conditions noted are these: PANC-1, 240 h, time 10 day. The class given is functional.
In assay [18] the test system is PANC-1. In words: Induction of cell death in human PANC-1 cells in nutrient-deprived medium at 10 uM after 24 hrs by ethidium bromide-acridine orange double-staining assay. The class given is functional, cell-based.
Assay [19] addresses T1, Serine/threonine-protein kinase AKT (Homo sapiens). Briefly: Inhibition of Akt S473 phosphorylation in human PANC-1 cells in NDM medium at 2.5 to 10 uM incubated for 6 hrs by Western blot analysis. It counts as cell-based. The note with it: dose 2.5-10 µM.
The subject of assay [20] is PANC-1. Briefly: Effect on […] protein expression in human PANC-1 cells in NDM medium at 1 to 10 uM incubated for 6 hrs by Western blot analysis. The class given is functional, cell-based. The conditions noted are these: dose 1-10 µM.

On to `CC(=O)O[C@H]1CCCC2=CC(=O)CC[C@@]21C`, for which the PC50 in the assay with PANC-1 [1] is more than 100 µM. In the assay on PANC-1 [2], this compound had a pIC50 of less than 4.00.

In the case of `CCO[C@H]1CCCC2=CC(=O)CC[C@@]21C`, the PC50 with PANC-1 [1] was more than 100 µM. The compound further showed a pIC50 in the assay with PANC-1 [2] of less than 4.00.

In the assay on PANC-1 [1], `C=C1[C@H](OCOC)C[C@H]2[C@@H]3CCC4=CC(=O)CC[C@]4(C)[C@H]3CC[C@]12C` yielded a PC50 of 31 µM. The “Selectivity Index” value in [3] is given as 3.2. The compound further showed a pIC50 with PANC-1 [2] of 4.00.

In the assay on PANC-1 [1], `C=C1C(F)(F)C[C@H]2[C@@H]3CCC4=CC(=O)CC[C@]4(C)[C@H]3CC[C@]12C` yielded a PC50 of 14 µM. Besides, the “Selectivity Index” value in [3] is more than 7.1. In addition, in the assay on PANC-1 [2], the pIC50 is less than 4.00.

`COCO[C@@H]1C[C@H]2[C@@H]3CCC4=CC(=O)CC[C@]4(C)[C@H]3CC[C@]2(C)C1=C(F)F`: the PC50 in the assay with PANC-1 [1] came out at 9.2 µM. Further, in assay [3], the “Selectivity Index” value is given as 3.2. In addition, the pIC50 in the assay with PANC-1 [2] is 4.54.

In the assay on PANC-1 [4], `C=C1C(=O)C[C@H]2[C@@H]3CC[C@H]4CC(=O)CC[C@]4(C)[C@H]3CC[C@]12C` had an inhibition at 5 µM of 100%. Besides, the result with PANC-1 [5], in the assay on PANC-1 [7] and in the assay on PANC-1 [18] was Active. The compound further registered a PC50 in the assay with PANC-1 [1] of 0.72 µM. The inhibition entry in assay [6], in assay [10] and in [19] was “Active” in each case. Besides, the Activity entry was “Non-Toxic” in the assay with PANC-1 [8]; 45% in the assay on PANC-1 [9]; 85% with PANC-1 [11]; “Non-Toxic” with PANC-1 [12]; 70% in the assay on PANC-1 [13]; “Non-Toxic” with PANC-1 [14]. For the same compound, the figures for the Activity in the assay on PANC-1 [15] and with PANC-1 [20] were 70% and “Non-Toxic”, respectively. The “Selectivity Index” value in assay [3] stood at 4.9. Also, the inhibition at 1 µM with PANC-1 [16] is more than 50.9%. For the same compound, the inhibition at 3 µM in the assay with PANC-1 [17] stood at 97.7%. Also, the pIC50 in the assay with PANC-1 [2] was 5.46.

As to `C[C@]12CCC(=O)C=C1CC[C@@H]1[C@@H]2CC[C@]2(C)C(=C(F)F)CC[C@@H]12`, the PC50 with PANC-1 [1] is 5.2 µM. Besides, the “Selectivity Index” value in [3] came to 18. The compound also gave a pIC50 in the assay with PANC-1 [2] of 4.04.

`C=C1[C@H](O)C[C@H]2[C@@H]3CCC4=CC(=O)CC[C@]4(C)[C@H]3CC[C@]12C` yielded a PC50 with PANC-1 [1] of 57 µM. Also, the pIC50 in the assay with PANC-1 [2] is less than 4.00.

With `C/C=C1/C(=O)C[C@H]2[C@@H]3CCC4=CC(=O)CC[C@]4(C)[C@H]3CC[C@]12C`, the PC50 result with PANC-1 [1] was “Active”.

As for `C[C@]12CC[C@H]3[C@@H](CCC4=CC(=O)CC[C@@]43C)[C@@H]1CC(=O)[C@@H]2CSCCO`, the PC50 with PANC-1 [1] amounted to 53 µM. Moreover, in the assay on PANC-1 [2], the pIC50 is 4.00.

The compound `C[C@]12CCC(=O)C=C1CC[C@@H]1[C@@H]2CC[C@]2(C)C(=C(F)F)[C@H](O)C[C@@H]12` gave a PC50 with PANC-1 [1] of 18 µM. Moreover, the “Selectivity Index” value in assay [3] stood at 2.8. This compound showed a pIC50 with PANC-1 [2] of 4.29.

In the assay with PANC-1 [1], `C=C1CC[C@H]2[C@@H]3CCC4=CC(=O)CC[C@]4(C)[C@H]3CC[C@]12C` had a PC50 of 3.5 µM. In addition, the “Selectivity Index” value in assay [3] is reported as 14. The pIC50 in the assay with PANC-1 [2] was 4.30.

`C=C1C(=O)C[C@H]2[C@@H]3CCC4=CC(=O)CC[C@]4(C)[C@H]3CC[C@]12C`: the PC50 in the assay on PANC-1 [1] amounted to 1.6 µM. Also, the “Selectivity Index” value in [3] stood at 6.9.

Turning to `C/C=C1/CC[C@H]2[C@@H]3CCC4=CC(=O)CC[C@]4(C)[C@H]3CC[C@]12C`, in the assay with PANC-1 [1], the PC50 is 3.2 µM. Further, the “Selectivity Index” value in assay [3] is on record as more than 31. In addition, the pIC50 in the assay with PANC-1 [2] was less than 4.00.

In the assay on PANC-1 [1], `C=C1C(=O)C[C@H]2[C@@H]3CC[C@H]4CCCC[C@]4(C)[C@H]3CC[C@]12C` showed a PC50 of 0.8 µM. The “Selectivity Index” value in [3] is on record as 3.8. This compound showed a pIC50 in the assay on PANC-1 [2] of 5.52.
